{
  "source": "patent EP1212309B1",
  "about": "“CASPASE INHIBITOR” (LG Chem Investment, Ltd., priority 1999, dated 2001)",
  "key": {"[1]": {"test_system": "Recombinant human caspase", "assay": "Inhibition of caspase activity in cell free system (chromogenic pNA substrates)", "format": "biochemical", "details": "100 µM compound, caspase-1, -2, -3, -4, -6, -7, -8 and -9, 200 µM chromogenic substrate, 37°C", "experimental": "The pharmacological efficacy of the compound according to the present invention was evaluated by the following experiments. Con A was purchased from Boehringer Mannheim GmbH (Mannheim, Germany). Peptide-based substrates of caspases (Ac-YVAD-pNA for caspase-1, Ac-VDVAD for caspase-2, Ac-DEVD-pNA for caspase-3, 7, 8, and 9, Ac-LEVD-pNA for caspase-4, and Ac-VEID-pNA for caspase-6) and peptide-based caspase inhibitors (Ac-DEVD-fmk, z-VAD-CHO) were purchased from Alexis Co. (San Diego, CA). Ac-DEVD-CHO and z-DEVD-cmk were purchased from Bachem; Anti Fas antibody was purchased from Oncor (Cat#A8050); WI38 cell was available from ATCC; IFN-gamma was purchased from LG Pharmaceuticals (Korea). All cell culture-media and supplements were purchased from Gibco BRL (Tsuen Wan, Hong Kong) unless mentioned otherwise. […]\nCaspase activity was tested by measuring proteolytic cleavage of peptide-based chromogenic substrate by each enzyme. […] Aliquots of the enzyme (2 µℓ containing catalytic activity of 0.2 absorbance at 405 nm/h) were mixed with 150 µℓ of 200 µM chromogenic substrate in the presence or absence of 100 µM compound 33 in 96-well plates. […] The absorbance of enzymatically released pNA was measured discontinuously at 405 nm in a microplate reader for I hr. The caspase activity was calculated from initial velocity (mean± SE)(n=4, in which n represents the number of repeated experiment)."}, "[2]": {"test_system": "Con A-induced acute hapatitis mice", "assay": "Con A-induced acute hepatitis in mice: plasma aminotransferase activity", "format": "in vivo, Balb/c mice", "experimental": "Female 6-week-old Balb/c mice (Charles River Laboratory, Osaka, Japan) were kept at 22 °C and 55% relative humidity in a 12-h day/night rhythm with free access to food and water. Con A was dissolved in pyrogen-free saline to a concentration of 2.5 mg/ml and was injected via the tail vein in an amount of 20mg/kg based on Con A. The animals were i.p. injected twice with compound 33 dissolved into a vehicle which consists of olive oil and 10% DMSO, or a vehicle alone, at 1 hr before and 4h after Con A injection. Animals were sacrificed by cervical dislocation at 24 hrs after Con A injection to obtain liver and blood samples.\nBlood samples obtained at step 1 were collected at 24h after Con A injection. Plasma AST and ALT activity were measured using Autokit (Youngdong Pharmaceutical Co., Seoul, Korea) following manufacturer's instruction."}, "[3]": {"test_system": "hepatocytes in ConA-treated mouse liver", "assay": "Con A-treated mouse liver: histologic examination and detection of apoptosis (H&E, TUNEL)", "format": "in vivo", "details": "ConA-treated mice, compound 33 4, 20, 100mg/kg", "experimental": "The present inventors estimated the prevalence of apoptotic cells in the mouse liver to certify the apoptosis-blocking effect of the compound of the present invention specifically in hepatocytes. Mice were treated ConA in the presence or absence of various dosages of compound 33 [A and G: ConA and vehicle treatment, B and H: ConA and compound 33 4mg/kg treatment, C and I: ConA and compound 33 20mg/kg treatment, D and J: ConA and compound 33 100mg/kg treatment] to prepare frozen liver sections. Also, mice were treated with PBS and vehicle (E and K), or PBS and compound 33 100mg/kg (F and L) to prepare frozen liver sections. Freshly excised mouse liver was immediately immersed in 25 % sucrose solution at 4 °C for overnight, then frozen in liquid nitrogen, and cryosectioned into 4 µm.\nFor histological examination, liver sections were fixed in 1% buffered paraformaldehyde and stained with hematoxilin & eosin (Fig. 6A to F). To detect apoptotic cells in liver, frozen liver was stained using an ApopTag in situ apoptosis peroxidase detection kit (terminal deoxynucleotidyl transferase-mediated dUTP nick end labeling: TUNEL assay) (Oncor, Gaithersburg, MD) and DAKO liquid DAB (DAKO, Carpinteria, CA)(Fig. 6G to L). Staining was conducted according to manufacturer's instruction. After completion of staining, the samples were observed under an optical microscope. […]"}, "[4]": {"test_system": "PARP cleavage", "assay": "Con A-treated mouse liver: Western blotting of PARP cleavage", "format": "in vivo", "details": "liver lysate of Con A-treated mice, various doses, Western blot", "experimental": "In this experiment, the cleavage of PARP was identified by the appearance on Western blot analysis of an 85 kDa-cleavage product in hepatic cell lysate obtained from mice treated with Con A and various doses of the compound of formula (I).\nFreshly harvested livers treated with Con A or PBS together with various doses of compound 33 were rinsed in cold PBS and homogenized into three volumes per weight of cold PBS containing 1% Nonidet P-40, 0.1 % SDS, 1 mM PMSF, and protease inhibitor cocktail tablet Complete™ (Boehnger Mannheim, used according to manufacturer's instruction). The homogenates were incubated on ice for 30 min. Samples were then centrifuged at 16,000 x g for 30 min at 4°C. Supernatants were transferred to fresh tubes and centrifuged for additional 30 min. Harvested lysates were precleared by incubating with protein G-sepharose (Pharmacia, Uppsala, Sweden) at 4 °C for overnight, gently shaking. Supernatants were harvested by centrifugation at 1000 x g for 30 sec. at 4 °C and separated on 7 % SDS-polyacrylamide gel and transferred to nitrocellulose membrane. Blots were blocked for 1 hr at room temperature in PBS containing 5% skimmed milk and 0.1% Tween 20 under gentle shaking. Membranes were then incubated overnight with 1:1000 diluted monoclonal anti-PARP antibody (Pharmingen) under gentle shaking. […]"}, "[5]": {"test_system": "WI38 cells", "assay": "Protection from IFNγ and anti-Fas antibody-induced apoptosis (XTT)", "format": "cell-based, human", "details": "100% when Fas antibody was not treated; for viability ratio: WI38 cells", "experimental": "WI38 cells (human embryonal lung fibroblast) were grown in a medium containing DMEM-10% FBS within 10cm diameter dishes until reaching at confluency. The cells were seeded into a 24-well plate at day 1 and incubated overnight while the volume of medium was maintained to 400µℓ. […] At day 3, each 100 µℓ of test compound was added to the cells after diluting the 10mM stock compound in DMSO to final concentrations of 50, 10, 2, and 0.4 µ M, respectively. The cells were incubated for 2 hrs in order for allowing the compound to enter into the cells and then treated with 40ng/well of anti-Fas antibody(apoptosis was induced 2 hrs after antibody was treated and the incubation was continued overnight). The control was not treated with Fas antibody. […] After coloring, 100-200µℓ of the supernatant was transferred to a 96-well plate and the absorbance at 490 nm was read with ELISA plate reader. For the blank, XTT solution was added to the well containing the medium only. Plotting was determined by comparing with the control group (100% when Fas antibody was not treated)."}},
  "data": [
    {"compound": "CC(C)[C@H](NC(=O)c1cccc2ccccc12)C1=NOC(Cc2ccccc2)(C(=O)N[C@@H](CC(=O)O)C(=O)COC(=O)c2c(Cl)cccc2Cl)C1", "note": "(stereo partly drawn) [Compound 33, (3S)-3-{3-[2-methyl-(1S)-1-(1-naphthalenecarbonylamino)-propyl]-5-phenylmethyl-4,5-dihydro-isoxazole-5-carbonylamino}-4-keto-5-(2,6-dichlorobenzoyloxy)-pentanoic acid]", "values": [
      {"measurement": "inhibition of recombinant caspase activity", "setting": "[1]", "value": "almost completely inhibited all tested caspase activity, only except for caspase 2"},
      {"measurement": "AST and ALT activity, difference to Con A/vehicle group", "setting": "[2]; 4mg/kg compound 33, second experiment (AST p=0.2972, ALT p=0.1378)", "value": "did not reached at statistically significant level"},
      {"measurement": "AST and ALT activities compared with ConA/vehicle group", "setting": "[2]; 20 mg/kg compound 33 (AST p=0.0174, ALT p=0.0011)", "value": "definitely reduced"},
      {"measurement": "AST activity by the compound itself (liver toxicity)", "setting": "[2]; compound alone without Con A, first experiment, not statistically significant (p=0.1033)", "value": "slightly increased AST activity by itself"},
      {"measurement": "serum AST and ALT activity elevated by ConA", "setting": "[2]; i.p. twice, 1 hr before and 4h after Con A 20mg/kg i.v., blood at 24h, across doses", "value": "suppressed the elevated enzyme activities in a dose-dependent manner"},
      {"measurement": "apoptotic lesions in liver", "setting": "[3]", "value": "reduced dose-dependently"},
      {"measurement": "cellular histology of liver", "setting": "[3]", "value": "gradually recovered with increasing dose"},
      {"measurement": "PARP cleavage (85 kDa-cleavage product) caused by Con A-induced apoptotic death of hepatic cells", "setting": "[4]", "value": "gradually reduced as dose of compound 33 is increased"},
      {"measurement": "viability at 0.4 µM", "setting": "[5]; Homo sapiens, WI-38, WI38 cells, Conc. 0.4 µM, read-out: viability ratio", "value": 15.5, "unit": "%"},
      {"measurement": "viability at 2 µM", "setting": "[5]; Homo sapiens, WI-38, WI38 cells, Conc. 2 µM, read-out: viability ratio", "value": 64.4, "unit": "%"},
      {"measurement": "viability at 10 µM", "setting": "[5]; Homo sapiens, WI-38, WI38 cells, Conc. 10 µM, read-out: viability ratio", "value": 92.7, "unit": "%"},
      {"measurement": "viability at 50 µM", "setting": "[5]; Homo sapiens, WI-38, WI38 cells, Conc. 50 µM, read-out: viability ratio", "value": 100, "unit": "%"},
      {"measurement": "viability ratio", "setting": "[5]; Conc. 50 µM, 50 µM", "value": 100, "unit": "%"},
      {"measurement": "viability ratio", "setting": "[5]; Conc. 50 µM, listed as Comp 33, 50 µM", "value": 100.21, "unit": "%"}
    ]}
  ]
}
